Earlier results, collected in patent US20050202550A1, “Crystal structure of 3', 5'-cyclic nucleotide phosphodiesterase (PDE10A) and uses thereof” (Pfizer Inc, priority 2004, published 2005).

Biological target: T1, PDE10 (Mus musculus, UniProt Q8CA95)
T1 sequence (Q8CA95 1-779 isoform Q8CA95-2): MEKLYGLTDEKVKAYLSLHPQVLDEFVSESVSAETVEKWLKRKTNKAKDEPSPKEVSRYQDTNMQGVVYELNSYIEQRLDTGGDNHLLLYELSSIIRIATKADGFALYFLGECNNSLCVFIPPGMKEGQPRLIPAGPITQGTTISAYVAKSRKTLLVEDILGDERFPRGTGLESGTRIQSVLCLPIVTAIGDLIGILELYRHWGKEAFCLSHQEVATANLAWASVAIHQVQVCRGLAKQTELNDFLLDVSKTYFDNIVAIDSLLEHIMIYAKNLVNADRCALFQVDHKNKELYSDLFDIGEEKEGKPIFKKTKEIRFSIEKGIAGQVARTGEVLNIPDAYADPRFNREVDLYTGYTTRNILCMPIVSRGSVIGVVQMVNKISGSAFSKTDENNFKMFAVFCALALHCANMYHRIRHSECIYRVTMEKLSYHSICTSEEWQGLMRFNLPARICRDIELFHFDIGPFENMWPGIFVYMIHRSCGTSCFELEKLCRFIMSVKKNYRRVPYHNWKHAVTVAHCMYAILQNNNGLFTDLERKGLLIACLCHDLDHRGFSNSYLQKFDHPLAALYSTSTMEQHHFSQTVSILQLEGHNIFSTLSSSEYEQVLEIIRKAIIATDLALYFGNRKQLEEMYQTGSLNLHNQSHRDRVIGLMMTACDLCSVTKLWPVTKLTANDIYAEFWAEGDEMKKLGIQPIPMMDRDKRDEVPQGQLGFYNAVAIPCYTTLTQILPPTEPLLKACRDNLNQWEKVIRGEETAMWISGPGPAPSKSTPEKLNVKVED
Conditions: mouse PDE10A1

In the case of `Nc1nc2c(ncn2[C@@H]2O[C@@H]3COP(=O)(O)O[C@H]3[C@H]2O)c(=O)[nH]1` [cGMP], the “Vmax for cGMP over cAMP” value (ratio of Vmax cGMP to cAMP) is given as “approximately 5 fold” and the Km (substrate, read-out: Km (affinity of the PDE10 for substrate)) is given as 3 µM.
